Non-standard residues stand in square brackets, D forms with d. Residues, ends and D or L forms follow the SMILES beside them. dPhe(4-CF3) = N[C@H](Cc1ccc(C(F)(F)F)cc1)C(=O)O; dPhe(4-Br) = N[C@H](Cc1ccc(Br)cc1)C(=O)O; dPhe(4-Me) = Cc1ccc(C[C@@H](N)C(=O)O)cc1; d2Nal = N[C@H](Cc1ccc2ccccc2c1)C(=O)O; dNle = CCCC[C@@H](N)C(=O)O; dNva = CCC[C@@H](N)C(=O)O
Legend:
[1] = test system: Methicillin-resistant Staphylococcus aureus (MRSA); assay type: cell-based; conditions: Methicillin-resistant
Method in brief: (§1)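 Antimicrobial peptide susceptibility is measured against clinically isolated resistant bacteria using the CLSI microdilution method.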

[2] = test system: carbapenem-resistant Escherichia coli (CREC); assay type: cell-based; conditions: carbapenem-resistant (CREC)
Method in brief: as §1

[3] = test system: carbapenem-resistant Klebsiella pneumoniae (CRKP); assay type: cell-based; conditions: carbapenem-resistant (CRKP)
Method in brief: as §1

[4] = test system: vancomycin-resistant Enterococcus (VRE); assay type: cell-based
Method in brief: as §1

[5] = test system: carbapenem-resistant Pseudomonas aeruginosa (CRPA); assay type: cell-based; conditions: carbapenem-resistant (CRPA)
Method in brief: as §1

[6] = test system: Staphylococcus aureus (NRS 384); conditions: NRS 384, 3 h
Experimental: Trypsin (250 U/mg, pH=8.0) and AMPs (LV-1 to LV-30) were mixed in a ratio of 1:10 (w/w) and added to a reaction buffer (0.2 M sodium phosphate, 1 mM CaCl2), pH 7.5), and then incubated at 37° C. for 3 h.

[7] = test system: Trichophyton ATCC MYA-4438; assay type: cell-based
Method in brief: (§2)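 Following CLSI standards, peptides are serially diluted twofold in a microdilution setup against each strain. The MIC is then recorded. The whole experiment is run five times in parallel.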

Candida krusei ATCC 6258 = assay type: cell-based
Method in brief: as §2

[8] = test system: Pseudomonas aeruginosa ATCC 27853; assay type: cell-based
Method in brief: as §2

[9] = test system: Candida albicans ATCC MYA-2876; assay type: cell-based
Method in brief: as §2

Enterococcus ATCC 29212 = assay type: cell-based
Method in brief: as §2

[10] = test system: Klebsiella pneumoniae ATCC 700603; assay type: cell-based
Method in brief: as §2

[11] = test system: Staphylococcus aureus ATCC 25923; assay type: cell-based
Method in brief: as §2

[12] = test system: Candida glabrata ATCC 15126; assay type: cell-based
Method in brief: as §2

[13] = test system: Escherichia coli ATCC 25922; assay type: cell-based
Method in brief: as §2

Candida utilis ATCC 9950 = assay type: cell-based
Method in brief: as §2

[14] = test system: Salmonella typhimurium ATCC 14028; assay type: cell-based
Method in brief: as §2

[15] = test system: Corynebacterium ATCC 7715; assay type: cell-based
Method in brief: as §2

[16] = test system: Candida tropicalis ATCC 750; assay type: cell-based
Method in brief: as §2

[17] = test system: Serratia marcescens ATCC 29021; assay type: cell-based
Method in brief: as §2

[18] = test system: Bacillus subtilis ATCC 6633; assay type: cell-based
Method in brief: as §2

[19] = test system: Shigella flexneri ATCC 12022; test: MIC against clinically common bacterial strain; assay type: cell-based
Method in brief: as §2

[20] = Serum stability assay (residual level by RP-HPLC); conditions: human
[21] = test system: Staphylococcus aureus (NRS 384); test: microbe, parasite or virus in culture; assay type: cell-based; conditions: NRS 384
Method in brief: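 CLSI broth microdilution with serial twofold dilutions gave MICs against S. aureus NRS 384, with 5 parallel replicates. Levofloxacin and the AMP Cbf-K16 served as positive controls.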

CC(=O)N[C@H](CCCNC(=N)N)C(=O)N[C@H](CCCCN)C(=O)N[C@H](CC(C)C)C(=O)N[C@H](CC(C)C)C(=O)N[C@H](Cc1ccc(C(F)(F)F)cc1)C(=O)N[C@H](CCCCN)C(=O)N[C@H](CC(C)C)C(=O)N[C@H](CCCCN)C(=O)N[C@H](Cc1ccc(C(F)(F)F)cc1)C(=O)N[C@H](CCCCN)C(=O)N[C@H](CCCNC(=N)N)C(N)=O [LV-9] (Ac-[dR][dK][dL][dL][dPhe(4-CF3)][dK][dL][dK][dPhe(4-CF3)][dK][dR]-NH2)
4 µg/mL: MIC VRE [4] | MIC CRPA [5] | MIC Enterococcus ATCC 29212 (Enterococcus ATCC 29212) | MIC Serratia marcescens ATCC 29021 [17]
8 µg/mL: MIC CRKP [3] | MIC Candida albicans ATCC MYA-2876 [9] | MIC Candida glabrata ATCC 15126 [12] | MIC Bacillus subtilis ATCC 6633 [18]
1 µg/mL: Trypsin MIC [6] | MIC against Staphylococcus aureus (NRS 384) [21]
97.3%: remaining at 12 h, 0.91 mg/mL [20]
16 µg/mL: MIC Trichophyton ATCC MYA-4438 [7] | MIC Candida krusei ATCC 6258 (Candida krusei ATCC 6258) | MIC Candida utilis ATCC 9950 (Candida utilis ATCC 9950) | MIC Candida tropicalis ATCC 750 [16]
2 µg/mL: MIC MRSA [1] | MIC CREC [2] | MIC Pseudomonas aeruginosa ATCC 27853 [8] | MIC Klebsiella pneumoniae ATCC 700603 [10] | MIC Staphylococcus aureus ATCC 25923 [11] | MIC Escherichia coli ATCC 25922 [13] | MIC Salmonella typhimurium ATCC 14028 [14] | MIC Corynebacterium ATCC 7715 [15] | MIC Shigella flexneri ATCC 12022 [19]

CC(=O)N[C@H](CCCCN)C(=O)N[C@H](CCCCN)C(=O)N[C@H](CC(C)C)C(=O)N[C@H](CC(C)C)C(=O)N[C@H](Cc1ccc(Br)cc1)C(=O)N[C@H](CCCNC(=N)N)C(=O)N[C@H](CC(C)C)C(=O)N[C@H](CCCCN)C(=O)N[C@H](Cc1ccc(Br)cc1)C(=O)N[C@H](CCCNC(=N)N)C(=O)N[C@H](CCCCN)C(N)=O [LV-10] (Ac-[dK][dK][dL][dL][dPhe(4-Br)][dR][dL][dK][dPhe(4-Br)][dR][dK]-NH2)
4 µg/mL: MIC MRSA [1] | MIC CREC [2] | MIC Candida tropicalis ATCC 750 [16] | MIC Serratia marcescens ATCC 29021 [17]
1 µg/mL: Trypsin MIC [6] | MIC Escherichia coli ATCC 25922 [13] | MIC against Staphylococcus aureus (NRS 384) [21]
2 µg/mL: MIC CRKP [3] | MIC CRPA [5] | MIC Pseudomonas aeruginosa ATCC 27853 [8] | MIC Enterococcus ATCC 29212 (Enterococcus ATCC 29212) | MIC Klebsiella pneumoniae ATCC 700603 [10] | MIC Staphylococcus aureus ATCC 25923 [11] | MIC Salmonella typhimurium ATCC 14028 [14] | MIC Bacillus subtilis ATCC 6633 [18] | MIC Shigella flexneri ATCC 12022 [19]
8 µg/mL: MIC VRE [4] | MIC Trichophyton ATCC MYA-4438 [7] | MIC Candida krusei ATCC 6258 (Candida krusei ATCC 6258) | MIC Candida albicans ATCC MYA-2876 [9] | MIC Candida glabrata ATCC 15126 [12] | MIC Candida utilis ATCC 9950 (Candida utilis ATCC 9950) | MIC Corynebacterium ATCC 7715 [15]
98%: remaining at 12 h, 0.91 mg/mL [20]

CC(=O)N[C@H](CCCNC(=N)N)C(=O)N[C@H](CCCCN)C(=O)N[C@H](CC(C)C)C(=O)N[C@H](CC(C)C)C(=O)N[C@H](Cc1ccc(C)cc1)C(=O)N[C@H](CCCCN)C(=O)N[C@H](CC(C)C)C(=O)N[C@H](CCCCN)C(=O)N[C@H](Cc1ccc(C)cc1)C(=O)N[C@H](CCCCN)C(=O)N[C@H](CCCNC(=N)N)C(N)=O [LV-11] (Ac-[dR][dK][dL][dL][dPhe(4-Me)][dK][dL][dK][dPhe(4-Me)][dK][dR]-NH2)
4 µg/mL: MIC VRE [4] | MIC CRPA [5] | MIC Klebsiella pneumoniae ATCC 700603 [10] | MIC Bacillus subtilis ATCC 6633 [18] | MIC Shigella flexneri ATCC 12022 [19]
8 µg/mL: MIC CRKP [3] | MIC Trichophyton ATCC MYA-4438 [7] | MIC Candida albicans ATCC MYA-2876 [9] | MIC Candida utilis ATCC 9950 (Candida utilis ATCC 9950) | MIC Corynebacterium ATCC 7715 [15] | MIC Candida tropicalis ATCC 750 [16] | MIC Serratia marcescens ATCC 29021 [17]
16 µg/mL: MIC Candida krusei ATCC 6258 (Candida krusei ATCC 6258) | MIC Candida glabrata ATCC 15126 [12]
1 µg/mL: Trypsin MIC [6] | MIC Staphylococcus aureus ATCC 25923 [11] | MIC against Staphylococcus aureus (NRS 384) [21]
2 µg/mL: MIC MRSA [1] | MIC CREC [2] | MIC Pseudomonas aeruginosa ATCC 27853 [8] | MIC Enterococcus ATCC 29212 (Enterococcus ATCC 29212) | MIC Escherichia coli ATCC 25922 [13] | MIC Salmonella typhimurium ATCC 14028 [14]
98.3%: remaining at 12 h, 0.91 mg/mL [20]

CCCC[C@@H](NC(=O)[C@@H](CCCCN)NC(=O)[C@@H](CCCNC(=N)N)NC(C)=O)C(=O)N[C@H](CCCC)C(=O)N[C@H](Cc1ccc2ccccc2c1)C(=O)N[C@H](CCCNC(=N)N)C(=O)N[C@H](CCCC)C(=O)N[C@H](CCCCN)C(=O)N[C@H](Cc1ccc2ccccc2c1)C(=O)N[C@H](CCCNC(=N)N)C(=O)N[C@H](CCCCN)C(N)=O [LV-12] (Ac-[dR][dK][dNle][dNle][d2Nal][dR][dNle][dK][d2Nal][dR][dK]-NH2)
16 µg/mL: MIC Trichophyton ATCC MYA-4438 [7] | MIC Candida utilis ATCC 9950 (Candida utilis ATCC 9950)
8 µg/mL: MIC MRSA [1] | MIC CREC [2] | MIC Candida albicans ATCC MYA-2876 [9] | MIC Candida tropicalis ATCC 750 [16] | MIC Bacillus subtilis ATCC 6633 [18]
97.5%: remaining at 12 h, 0.91 mg/mL [20]
2 µg/mL: MIC CRPA [5] | MIC Klebsiella pneumoniae ATCC 700603 [10] | MIC Corynebacterium ATCC 7715 [15] | MIC Serratia marcescens ATCC 29021 [17]
4 µg/mL: MIC CRKP [3] | MIC VRE [4] | MIC Candida krusei ATCC 6258 (Candida krusei ATCC 6258) | MIC Enterococcus ATCC 29212 (Enterococcus ATCC 29212) | MIC Candida glabrata ATCC 15126 [12] | MIC Salmonella typhimurium ATCC 14028 [14] | MIC Shigella flexneri ATCC 12022 [19]
1 µg/mL: Trypsin MIC [6] | MIC Pseudomonas aeruginosa ATCC 27853 [8] | MIC Staphylococcus aureus ATCC 25923 [11] | MIC Escherichia coli ATCC 25922 [13] | MIC against Staphylococcus aureus (NRS 384) [21]

CCC[C@@H](NC(=O)[C@@H](CCCCN)NC(=O)[C@@H](CCCNC(=N)N)NC(C)=O)C(=O)N[C@H](CCC)C(=O)N[C@H](Cc1ccc2ccccc2c1)C(=O)N[C@H](CCCNC(=N)N)C(=O)N[C@H](CCC)C(=O)N[C@H](CCCCN)C(=O)N[C@H](Cc1ccc2ccccc2c1)C(=O)N[C@H](CCCNC(=N)N)C(=O)N[C@H](CCCCN)C(N)=O [LV-13] (Ac-[dR][dK][dNva][dNva][d2Nal][dR][dNva][dK][d2Nal][dR][dK]-NH2)
98.5%: remaining at 12 h, 0.91 mg/mL [20]
8 µg/mL: MIC Enterococcus ATCC 29212 (Enterococcus ATCC 29212) | MIC Candida glabrata ATCC 15126 [12] | MIC Candida utilis ATCC 9950 (Candida utilis ATCC 9950) | MIC Shigella flexneri ATCC 12022 [19]
16 µg/mL: MIC Candida albicans ATCC MYA-2876 [9]
2 µg/mL: MIC MRSA [1] | MIC CRKP [3] | MIC CRPA [5] | MIC Staphylococcus aureus ATCC 25923 [11] | MIC Escherichia coli ATCC 25922 [13] | MIC Salmonella typhimurium ATCC 14028 [14]
1 µg/mL: Trypsin MIC [6] | MIC against Staphylococcus aureus (NRS 384) [21]
4 µg/mL: MIC CREC [2] | MIC VRE [4] | MIC Trichophyton ATCC MYA-4438 [7] | MIC Candida krusei ATCC 6258 (Candida krusei ATCC 6258) | MIC Pseudomonas aeruginosa ATCC 27853 [8] | MIC Klebsiella pneumoniae ATCC 700603 [10] | MIC Corynebacterium ATCC 7715 [15] | MIC Candida tropicalis ATCC 750 [16] | MIC Serratia marcescens ATCC 29021 [17] | MIC Bacillus subtilis ATCC 6633 [18]

Reference: US20250304620A1, “ANTIMICROBIAL PEPTIDE AND APPLICATION THEREOF” (priority 2023, published 2025)
